From US9023857B2, “Substituted 6-(2-aminobenzylamino)purine derivatives, their use as medicaments and preparations containing these compounds” (Univerzita Palackeho V Olomouci, priority 2009, dated 2015)

Assays:
[1] = tested on: SV40 large T-antigen in COS-1 cells; experiment: Expression from SV40 promoter incorporated in the cellular genome (COS-1 cells); type: cell-based; conditions: COS-1 cells (FIG. 10)
Method: Cell were detached with rubber policeman and washed three times with ice-cold PBS and lysed in buffer (50 mM Tris, pH 7.4, 250 mM NaCl, 5 mM EDTA, 50 mM NaF, 1 mM Na3VO4, 1% Nonidet P40) containing mixture of protease and phosphatase inhibitors (Sigma-Aldrich St Louis, Mo., USA). 20 μg of total proteins were separated by SDS-polyacrylamide gel electrophoresis (SDS-PAGE) on 8% or 10% gels and transferred onto nitrocellulose membranes. Membranes were blocked in 5% milk and 0.1% Tween 20 in PBS and probed overnight with specific monoclonal antibodies or rabbit polyclonal sera. Primary antibodies specific for RNA polymerase II (all from Santa Cruz Biotechnology, California, USA) included: (i) N-20 used at […] (ii) H14, specific for form phosphorylated at phosphoserine 5, used at 6 μg/ml and (iii) H5, specific for form phosphorylated at phosphoserine 2 used at 4 μg/ml. Additional primary mAb used in immunblots included (iv) anti-p53 (D0-1, in house, […]) used at 1 μg/ml, (v) anti-p21^WAF1 (118, in house), used at 1 μg/ml), (vi) anti-actin (A-2066, Sigma-Aldrich St Louis, Mo., USA) used at 1 μg/ml, (vii) anti-T-antigen (419, in house, Lane), used at 1 μg/ml. All primary antibodies were diluted in PBS containing 5% powdered milk; 0.1% Tween 20. […]

HCMV = experiment: Plaque number reduction assay, HCMV on HFFF; type: cell-based, Human cytomegalovirus strain Toledo
[2] = tested on: p53 protein in BT549 (mut p53) breast cancer cell line; experiment: p53 protein expression in BT549 cells (immunoblotting); type: cell-based, human; conditions: BT549 (mutant p53), 5 μM, 6, 12 and 24 hrs
Method: (§1) (a) DO-1, DO-2 and 1801 monoclonal antibodies recognise the N-terminal region of p53 protein, monoclonal antibodies DO-11 and DO-12 recognise different epitopes in the core domain of p53 protein, monoclonal antibodies Bp53-10 and Pab421 recognise the C-terminal region of p53 protein. (b) Monoclonal antibody 118 recognises p21^WAF1.
For direct immunoblotting, total cellular protein lysates were prepared by harvesting cells in hot Laemmli electrophoresis sample buffer. Proteins were then separated by SDS-polyacrylamide gel electrophoresis (SDS-PAGE) on 10% gel and transferred onto a nitrocellulose membrane in Bio.Rad Mini Trans-Blott Electrophoretic Transfer Cell for 2 hrs at 4° C. applying 150 mA in transfer buffer ([…], 190 mM glycine and 20% methanol). Prestained molecular weight markers (Bio-Rad) were run in parallel. […]
First, we determined appropriate concentration of 103 and 105 for our experiments. The MCF-7 (wt p53) cells were treated for 12 hrs with increasing concentrations of 105 ranging from 1 to 100 μM and analysed for p53 protein expression using monoclonal antibody DO-1 (FIG. 3A). […] We analysed the expression of p53 protein in MCF-7 (wt p53), BT549 (mut p53) and BT474 (mut p53) breast cancer cell lines, in HT29 (mut p53) colorectal cancer cell line and in ostaosarcoma cell line HOS (mut p53). […]

[3] = tested on: human erythroleukaemia K562; experiment: In vitro cytotoxic activity (Calcein AM, 72 hours), K562; conditions: K562, 72 h, read-out: Cytotoxicity IC50 K-562
[4] = tested on: HIV promoter (pHIV-lacZ, extrachromosomal) in H1299-TAT cells; experiment: β-galactosidase expression from pHIV-lacZ transiently transfected to H1299-TAT; conditions: H1299-TAT cells (FIG. 11)
HSV-1-deltaTK = experiment: Plaque number reduction assay, HSV-1-deltaTK on HFFF; type: cell-based; conditions: HSV-1 thymidine kinase (TK) deletion mutant on HFFF
[5] = tested on: promyelocytic leukemia HL 60; experiment: In vitro cytotoxic activity (Calcein AM, 72 hours), HL 60; conditions: Homo sapiens, HL-60, 72 h, read-out: Cytotoxicity IC50 HL60
[6] = tested on: CMV promoter (plasmid pCMV-lacZ); experiment: β-galactosidase expression from transiently transfected pCMV-lacZ in MCF-7 and T47D; conditions: transiently transfected MCF-7 and T47D (FIG. 9)
breast carcinoma MCF7 = experiment: In vitro cytotoxic activity (Calcein AM, 72 hours), MCF7; conditions: Homo sapiens, MCF7, 72 h, read-out: Cytotoxicity IC50 MCF7
[7] = tested on: p53-responsive reporter pRGCΔfoslacZ in human melanoma cell line Arn8; experiment: p53-dependent transcriptional activity, β-galactosidase reporter in Arn8 cells
[8] = tested on: p53 protein in MCF-7 cells expressing wild-type p53; experiment: Induction of p53 protein in MCF-7 cells (immunoblotting); type: cell-based, human
Method: as §1
For direct immunoblotting, total cellular protein lysates were prepared by harvesting cells in hot Laemmli electrophoresis sample buffer. Proteins were then separated by SDS-polyacrylamide gel electrophoresis (SDS-PAGE) on 10% gel and transferred onto a nitrocellulose membrane in Bio.Rad Mini Trans-Blott Electrophoretic Transfer Cell for 2 hrs at 4° C. applying 150 mA in transfer buffer ([…], 190 mM glycine and 20% methanol). Prestained molecular weight markers (Bio-Rad) were run in parallel. The blotted membranes were blocked in 5% milk and 0.1% Tween 20 in PBS for 2 hrs and probed overnight with monoclonal antibodies. After washing 3 times in PBS plus 0.1% Tween 20, peroxidase conjugated rabbit anti-mouse immunoglobulin antiserum (Dako, Denmark) diluted 1:1000 was used as the secondary antibody. To visualise peroxidase activity, ECL reagents from […] were used according to the manufacturer instructions.
First, we determined appropriate concentration of 103 and 105 for our experiments. The MCF-7 (wt p53) cells were treated for 12 hrs with increasing concentrations of 105 ranging from 1 to 100 μM and analysed for p53 protein expression using monoclonal antibody DO-1 (FIG. 3A). […] As shown at FIG. 3C the level of protein expression induced by 5 μM 105 was not substantially different from expression induced by 50 μM concentration was selected for further experiments. Second, the periods of time 6, 12 and 24 hrs were chosen, since the level of protein expression reached a steady state. We analysed the expression of p53 protein in MCF-7 (wt p53), BT549 (mut p53) and BT474 (mut p53) breast cancer cell lines, in HT29 (mut p53) colorectal cancer cell line and in ostaosarcoma cell line HOS (mut p53). […] No induction of p53 was observed following exposure of BT549 and HOS cell lines, expressing mutant p53, to 5 μM 105 for 6, 12 and 24 hrs. No correlation was observed between the sensitivity of cell lines to 105 and the presence of wild-type or mutant p53.

[9] = tested on: p53-responsive reporter pRGCΔfoslacZ in murine fibroblasts T22lacZ; experiment: p53-dependent transcriptional activity, β-galactosidase reporter in T22lacZ cells; type: cell-based; conditions: 5 μM
VV = type: cell-based, Vaccinia virus strain WR; conditions: Vaccinia virus on HFFF
HSV-2 = experiment: Plaque number reduction assay, HSV-2 on HFFF; type: cell-based, HSV-2 strain HG52

CCC(CO)Nc1nc(NCc2ccccc2N)c2ncn(C(C)C)c2n1 (stereo not shown) [Compound 105, 2-({6-[(2-aminobenzyl)amino]-9-isopropyl-9H-purin-2-yl}amino)butan-1-ol]
large T-antigen expression [1]: stimulated large T-antigen expression | inhibition of virus replication (in words) (HCMV): equally sensitive | induction of p53 [2]: No induction | IC50 [3]: 12.8 µM | expression from pHIV-lacZ (extrachromosomal location), β-galactosidase readout [4]: inhibited | inhibition of virus replication (in words) (HSV-1-deltaTK): remained sensitive | IC50 [5]: 6.7 µM | expression from CMV promoter (β-galactosidase activity) [6]: inhibited expression | IC50 (breast carcinoma MCF7): 3.4 µM | blue-coloured cells (β-galactosidase activity, X-gal substrate) ([7]; Arn8 cells, 5 μM): about 25% | total β-galactosidase activity, colorimetric assay ([7]; Arn8 cells, 12 and 24 hours after treatment): strong activity | Max. β-Gal. Activtity Conc. ([7]; concentration inducing maximum of β-galactosidase activity (p53-responsive reporter)): 16 µM | tumor suppressor p53 level ([8]; MCF7 cells treated for 24 h, immunoblot (FIG. 2)): Induction | concentration shown to affect the level of p53 protein ([8]; MCF-7 (wt p53), 12 hrs, antibody DO-1): 2 to 5 µM | accumulation of wild-type p53 ([8]; MCF-7, 5 μM, 6, 12 and 24 hrs): significant accumulation | time at which induction of p53 protein was apparent ([8]; MCF-7 cells): 4 h | blue-coloured cells (β-galactosidase activity, X-gal substrate) [9]: about 25% | inhibition of virus replication (in words) (VV): inhibited equally well | inhibition of virus replication (in words) (HSV-2): inhibited replication
